Laboratory results as given in patent publication US20200404909A1, “Fatty acid derivatives for use as herbicides” (Clariant International Ltd., priority 2018, published 2020).

Experiments:
[1] = Volatility from spray deposit on non-permeable leaf cuticles; assay type: physicochemical; settings: pelargonic acid 30 g/L, Vorox 130 g/L
Description: (§1) The volatility of the test substances from the spray deposit was measured time dependent. All measurements have been carried out using a concentration of 50 g/L of the test substances in the application solution. The reference pelargonic acid was used at a concentration of 30 g/L and the commercial benchmark Vorox was applied at a concentration of 130 g/L. The […] drop volumes of 10 μl of the spray liquids which amounts to 500 μg of test substance were then applied on two different substrates. An inert wettable synthetic substrates and non-permeable leaf cuticles were used as substrates. […] After evaporation of drop water, the substrates were weighed to obtain the initial weight and placed under a sealed box with defined air suction output volume of 30 m^3/h. The volatility has been determined after the desired measurement time of 4 h, 24 h and 48 h by weighing of the substrates to obtain the remaining weight of the test substances. The fraction of remaining test substance in % is obtained by the ratio of remaining test substance compared to the initial weight of test substance. The volatilized amount was calculated by subtraction of the remaining test substance of the initial applied amount. The volatilized fraction of test substance in % is obtained by the ratio of volatilized test substance compared to the initial weight of test substance. A substrate without test substance is used as reference to account for changes in environmental conditions such as humidity. Concentrations used are based on ca. 3% pelargonic acid equivalent

[2] = Volatility from spray deposit on inert wettable synthetic substrates; assay type: physicochemical; settings: pelargonic acid 30 g/L, Vorox 130 g/L
Description: as §1

[3] = tested on: monocotyledonous and dicotyledonous harmful plants (ABUTH, ALOMY, AMARE, DIGSA, ERICA, LOLPE, SOLNI, VIOAR); assay: Greenhouse trials, post emergence herbicidal activity (percent control); assay type: in vivo; settings: 5-20% w/v of applied substances, spray volume 500-1000 liters per hectare, broadcast foliar method
Description: Standard post emergence herbicide application procedures were used, as described below, to apply inventive compounds and formulations listed in the tables 1 and 2, as well as the reference materials.
Seed of monocotyledonous and dicotyledonous harmful plants such as Abutilon theophrasti (ABUTH), Alopecurus myosuroides (ALOMY), Amaranthus retroflexus (AMARE), Digitaria Sanguinalis (DIGSA), Erigeron canadensis (ERICA), Lolium perenne (LOLPE), Solanun nigrum (SOLNI), Viola arvensis (VIOAR) were sowed in 18 cm^2 pots. The plants were placed in a greenhouse under controlled environmental conditions, and sub-irrigation. About one week after emergence, seedlings were thinned as needed, including removal of any unhealthy or abnormal plants, to create a uniform series of test pots.
The plants were maintained for the duration of the test in the greenhouse, where they received a mean of 70 μmol m^−2 s^−1 of light per day/night. Temperatures averages about 24° C. during the day and about 20° C. during the night. Plants were sub-irrigated throughout the test to ensure adequate soil moisture levels.
Pots were assigned to different treatment in a randomized experimental design. A set of pots was left untreated as a reference against which effects of the treatments could later be evaluated. Applications of tested formulations were made in a spray cabin model SPK B CT02 designed by CheckTec using the following parameters: • nozzle Lechler LU-120-08, 1000 L/ha, 3 bars, 0.56 m/s • nozzle Lechler LU-120-06, 500 L/ha, 3 bars, 0.7 m/s.
The distance of the nozzle from the plants was between 50 to 53 cms.
After treatment, pots were returned to the greenhouse until ready for evaluation (6 hours after treatment (6HAT), 1 day after treatment (1DAT), and 2 days after treatment (2DAT).
For evaluation of herbicidal effectiveness, all plants in the test were examined by a single technician, who recorded percent control, a visual measurement of the effectiveness of each treatment by comparison with untreated plants. […] The reported % control values represent the average for all replicates of each treatment.

[4] = Spray liquids in water: appearance and stability after 24 h; assay type: physicochemical; settings: for Appearance: spray liquid in water, after 24 h
Description: The inventive compounds were used to make spray liquids at relevant use concentration. These spray liquids are produced by mixing the various test substances in water, and the appearance and stability of the spray liquid were assessed after 24 h.
The inventive compounds can be used as 100% substances without need for additional additives or formulation aids to obtain stable spray liquids. They are either water soluble and form clear homogeneous spray liquid or self-emulsifying in the spray liquid and form cloudy homogeneous emulsions that are stable over 24 h. […] Stable spray liquids can only be achieved with pelargonic acid when they are formulated with appropriate emulsifiers and other formulation aids like in the commercial benchmark Vorox.

[5] = tested on: Fruit trees (apple trees); assay: Plant growth regulator activity: blossom thinning in orchards (greenhouse and field trial); assay type: in vivo; settings: A1 diluted in water 1-10%, about 2 to about 15 liters per apple tree
Description: Fruit trees were sprayed with substance A1 (Pelargonic acid 6 EO ester methyl ether), several days before the expected full blossoming in the greenhouse, and also in a field trial to test the blossom thinning, which is used to increase the fruit production.
Plots (3 trees per plot in field trials; 1 tree per plot in greenhouse) were assigned to different treatments in a randomized experimental design. One plot was left untreated as a reference against which effects of the treatments could later be evaluated.
The test substance A1 was diluted in water in a range of 1-10% and the spray solution was sprayed in an amount of about 2 to about 15 liters per apple tree (height: about 2-2.5 m, width: about 1-1.5 m). The Application was made with a high-pressure power backpack sprayer manufactured by SOLO® Kleinmotoren GmbH.
The treated trees were evaluated regarding flower thinning effect, but also regarding undesired effects by chemical injury such as leaf browning, leaf malformation, etc.

[6] = pH 4, 4 h, test substances 50 g/L
[7] = pH 4, 24 h, test substances 50 g/L
[8] = pH 4, 48 h, test substances 50 g/L

CCCCCCCCC(=O)OCCOCCOCCOCCOCCOCCOC [A1, Pelargonic acid 6 EO ester methyl ether]
Volatilized fraction 4 h [1, 6]: 1.5%
Volatilized fraction 24 h [1, 7]: 4.8%
Volatilized fraction 48 h [1, 8]: 5.2%
Volatilized fraction 4 h [2, 6]: −0.2%
Volatilized fraction 24 h [2, 7]: 0.6%
Volatilized fraction 48 h [2, 8]: 1.2%
herbicidal activity against a plurality of the harmful plants [3]: moderately effective to highly effective
herbicidal activity against several, in particular three or more, of the mentioned harmful plants [3]: highly effective
Appearance ([4]; amount 5.0 % by wt.): Clear solution
undesired effects by chemical injury (leaves, branches, tree) ([5]; evaluated after treatment): without significantly harming the tree
flower thinning effect ([5]; sprayed several days before full blossoming): excellent results as flower thinning agent

CCCCCCCCC(=O)OCCOCCOCCOCCOCCOCCOCCOCCOC [A2, Pelargonic acid 8 EO ester methyl ether]
Volatilized fraction 4 h [1, 6]: 1.7%
Volatilized fraction 24 h [1, 7]: 2.1%
Volatilized fraction 48 h [1, 8]: 2.8%
Volatilized fraction 4 h [2, 6]: −0.3%
Volatilized fraction 24 h [2, 7]: 0.2%
Volatilized fraction 48 h [2, 8]: 0.4%
herbicidal activity against a plurality of the harmful plants [3]: moderately effective to highly effective
Appearance ([4]; amount 0.3 % by wt.): Clear solution
Appearance ([4]; amount 5.0 % by wt.): Clear solution

CCCCCCCCC(=O)OCCOCCOCCOCCOC(C)COCCOCCOC (stereo not shown) [A3, Pelargonic acid 1 PO 6 EO ester methyl ether]
herbicidal activity against a plurality of the harmful plants [3]: moderately effective to highly effective

CCCCCCCCC(=O)OC(C)COCCOCCOC (stereo not shown) [A4, Pelargonic acid 1 PO 2 EO ester methyl ether]
herbicidal activity against a plurality of the harmful plants [3]: moderately effective to highly effective
herbicidal activity against several, in particular three or more, of the mentioned harmful plants [3]: highly effective

CCCCCCCCCCOCCOCCOCCOCCOCCOC(=O)CCCCCCCC [A9, Pelargonic acid 5 EO ester decyl ether]
Volatilized fraction 4 h [1, 6]: 8.6%
Volatilized fraction 24 h [1, 7]: 11.7%
Volatilized fraction 48 h [1, 8]: 22.8%
Volatilized fraction 4 h [2, 6]: 0.3%
Volatilized fraction 24 h [2, 7]: 1.2%
Volatilized fraction 48 h [2, 8]: 1.9%
herbicidal activity against a plurality of the harmful plants [3]: moderately effective to highly effective

CCCCCCCCC(=O)OCCOCCOCCOCCCCCC [A10, Pelargonic acid 3 EO ester hexyl ether]
Volatilized fraction 4 h [1, 6]: 6.2%
Volatilized fraction 24 h [1, 7]: 14.7%
Volatilized fraction 48 h [1, 8]: 18.9%
Volatilized fraction 4 h [2, 6]: 0.9%
Volatilized fraction 24 h [2, 7]: 4.4%
Volatilized fraction 48 h [2, 8]: 7.2%
herbicidal activity against a plurality of the harmful plants [3]: moderately effective to highly effective

C=CCCCCCCCC(=O)OCCOCCOCCOCCOCCOCCOC [A11, Dec-9-enoic acid 6 EO ester methyl ether]
herbicidal activity against a plurality of the harmful plants [3]: moderately effective to highly effective

CC(CC(=O)O)CC(C)(C)C (stereo not shown) [A13, 3,5,5-trimethylhexanoic acid]
herbicidal activity against a plurality of the harmful plants [3]: moderately effective to highly effective

CCCCCCCCCCC(=O)OCCOCCOCCOCCOCCOCCOC [A15, Undecanoic acid 6 EO ester methyl ether]
herbicidal activity against a plurality of the harmful plants [3]: moderately effective to highly effective

CCCCCCCCC(=O)OCCOCCOCCOCCOCCOCCOCC [A16, Pelargonic acid 6 EO ester ethyl ether]
herbicidal activity against a plurality of the harmful plants [3]: moderately effective to highly effective

CCCCCCCCC(=O)OCCOCCOCCOCCOCCOCCOC(=O)CCCCCCCC [A17, Pelargonic acid 6 EO diester, reference compound]
Volatilized fraction 4 h [1, 6]: 0.6%
Volatilized fraction 24 h [1, 7]: 1.5%
Volatilized fraction 48 h [1, 8]: 0.6%
Volatilized fraction 4 h [2, 6]: 0.6%
Volatilized fraction 24 h [2, 7]: 1.0%
Volatilized fraction 48 h [2, 8]: 1.3%

CCCCCCCCC(=O)OCCOCCOCCOCCOCCOCCOCCOCCOC(=O)CCCCCCCC [A18, Pelargonic acid 8 EO diester, reference compound]
Volatilized fraction 4 h [1, 6]: 0.6%
Volatilized fraction 24 h [1, 7]: 1.7%
Volatilized fraction 48 h [1, 8]: 4.0%
Volatilized fraction 4 h [2, 6]: 0.5%
Volatilized fraction 24 h [2, 7]: 0.7%
Volatilized fraction 48 h [2, 8]: 0.9%

CCCCCCCCC(=O)O [Pelargonic acid, reference compound]
Volatilized fraction 4 h [1, 6]: 55.7%
Volatilized fraction 24 h [1, 7]: 78.9%
Volatilized fraction 48 h [1, 8]: 80.6%
Volatilized fraction 4 h ([1]; pH 7, 4 h): 29.2%
Volatilized fraction 24 h ([1]; pH 7, 24 h): 33.8%
Volatilized fraction 48 h ([1]; pH 7, 48 h): 35.3%
Volatilized fraction 4 h [2, 6]: 3.9%
Volatilized fraction 24 h [2, 7]: 19.1%
Volatilized fraction 48 h [2, 8]: 35.2%
Volatilized fraction 4 h ([2]; pH 7, 4 h): 7.3%
Volatilized fraction 24 h ([2]; pH 7, 24 h): 21.3%
Volatilized fraction 48 h ([2]; pH 7, 48 h): 27.9%
herbicidal activity against a plurality of the harmful plants [3]: moderately effective to highly effective
stability of spray liquid ([4]; 100% substances in water without additional additives or formulation aids): phase separate immediately
Appearance ([4]; amount 0.3 % by wt.): 2 clear phases
Appearance ([4]; amount 5.0 % by wt.): 2 clear phases

C8/C10 fatty acid 4 EO ester methyl ether [A5]
herbicidal activity against a plurality of the harmful plants [3]: moderately effective to highly effective

C8/C10 fatty acid 6 EO ester methyl ether [A6]
herbicidal activity against a plurality of the harmful plants [3]: moderately effective to highly effective
Appearance ([4]; amount 5.0 % by wt.): Clear solution

C12/C14 fatty acid 3 EO ester methyl ether [A7]
herbicidal activity against a plurality of the harmful plants [3]: moderately effective to highly effective

C12/C14 fatty acid 5 EO ester methyl ether [A8]
herbicidal activity against a plurality of the harmful plants [3]: moderately effective to highly effective

Dodec-9-enoic acid 3 EO ester methyl ether [A12]
herbicidal activity against a plurality of the harmful plants [3]: moderately effective to highly effective

Dodecanoic acid 6 EO ester methyl ether [A14]
herbicidal activity against a plurality of the harmful plants [3]: moderately effective to highly effective
